Patent US11912713B2, “7-membered aza-heterocyclic containing delta-opioid receptor modulating compounds, methods of using and making the same” (Trevena, Inc., priority 2017, dated 2024)

Assays:
[1] = system: adult male C57 mice; test: Tail suspension test (TST); format: in vivo, mouse
Method: The experiments were performed using adult male C57 mice (6-10 weeks of age, 20-30 g, Hilltop Lab, PA). The mice were housed in standard rodent cages with stainless steel mesh wire bar lids in groups of 4 with controlled temperature and light cycle (6:00 a.m.-6:00 p.m.). Animals were given free access to food (Harlan Teklad Global 18% protein (Madison, WI)) and water during a minimum 2-day habituation period to the laboratory. Animals that were used in the study were handled, housed, and sacrificed (using compressed CO2) in accord with the current NIH guidelines regarding the use and care of laboratory animals, and all applicable local, state, and federal regulations and guidelines. Animals are identified by cage number, and by markings applied to the proximal tip of the tail using a permanent marker. Group sizes (n=8, and therefore 30-50 animals per study) provide reliable estimates of treatment effects, and this species and strain of mouse has been recognized as appropriate for pharmacology studies.
To measure efficacy of the compounds the compounds were tested using a tail suspension test. The tail suspension test is a behavioral test used to evaluate the efficacy of antidepressant drugs in rodents. In the TST, mice (n=8/group) were suspended by the tail with tape approximately 30-50 cm above the lab bench. Mice are positioned such that the base of their tail is perpendicular to the lab bench. Each mouse is given 1 trial that last 6 minutes. The total duration of immobility is calculated as the percentage of time that the mouse is immobile. The duration of immobility is the main parameter measured. This is calculated from the cumulated time during which the animals is absent of initiated movements including passive swaying. When antidepressant drugs are administered, immobility is decreased by a variety of classes of antidepressant drugs. One or more of the compounds show antidepressant activity.

[2] = target: T1, delta-opioid receptor (hDOR) (Homo sapiens, UniProt P41143); test: cAMP assay (receptor G-protein mediated response); format: cell-based; conditions: efficacy, normalized against DPDPE
T1 sequence (P41143 whole entry): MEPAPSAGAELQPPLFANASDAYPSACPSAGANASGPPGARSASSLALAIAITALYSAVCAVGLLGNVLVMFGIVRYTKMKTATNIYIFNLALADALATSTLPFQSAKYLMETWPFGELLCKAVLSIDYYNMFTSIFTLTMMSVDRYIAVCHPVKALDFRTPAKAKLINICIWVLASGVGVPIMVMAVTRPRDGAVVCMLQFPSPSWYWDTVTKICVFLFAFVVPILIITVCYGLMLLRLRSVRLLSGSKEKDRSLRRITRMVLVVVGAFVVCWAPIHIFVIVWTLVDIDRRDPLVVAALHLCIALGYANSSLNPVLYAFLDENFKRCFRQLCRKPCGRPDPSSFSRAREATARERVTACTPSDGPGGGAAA
Method: (§1) Clonal stable lines were subsequently selected under G418.
(§2) Cell lines were grown adherently in Minimum Essential Media (Cellgro cat #10-010-CM) containing 10% fetal bovine serum (Hyclone cat #SH30071.03), 4 mM glutamine (Cellgro cat #25-005-CI), 150 ug/ml hygromycin B (Cellgro cat #30-240-CR), 150 ug/ml G418 (Cellgro cat #30-234-CR), and 50 u/50 ug penicillin/streptomycin (Lonza cat #17-603E). Prior to the assay cells were removed from the flasks with CellStripper (Cellgro cat #25-056-CI), repeatedly pipetted to disperse cells, and spun at low speed for 5 min at room temperature. Cells were then resuspended at 250,000 cells/ml in growth media and plated at 5,000 cells/well in 384 well plates (Greiner part #784080). Plates were incubated overnight at 37° C., 5% CO2 in a humidified incubator.
Receptor G-protein mediated responses were determined by measuring changes in intracellular cAMP using CisBio HTRF cAMP HiRange kit (cat #62AM6PEJ) based on time-resolved fluorescence resonance energy transfer (TR-FRET). […] Following a 30 minute incubation at 37° C. the components of the cAMP HiRange kit were added as directed and the plates were read after 1 hour on a BMG PheraStar plate reader. Responses were measured as the ratio of fluorescence at 665 nm/620 nm per manufacturer's instructions.

[3] = target: T1, delta-opioid receptor (hDOR); test: β-Arrestin recruitment assay (PathHunter); format: cell-based
Method: as §1, §2
Receptor mediated beta-arrestin recruitment was determined using the DiscoveRx β-arrestin PathHunter Detection kit (cat #93-0001). In this system, β-Arrestin is fused to an N-terminal deletion mutant of β-galactosidase (termed the enzyme acceptor of EA) and the GPCR of interest is fused to a smaller (42 amino acids), weakly complementing fragment termed ProLink™. […] Following a 60 minute incubation at 37° C. the components of the DiscoveRx β-arrestin PathHunter Detection kit were added as directed and the plates were read after 1 hour on a BMG PheraStar plate reader.

[4] = system: mu- and kappa-opioid receptors; conditions: versus mu- and kappa-opioid receptors
Description: Plasmids encoding delta-opioid receptor (Accession NP_000902), mu-opioid receptor (Accession NP_000905) and kappa-opioid receptor (Accession Assession NP_000903) were generated in the pCMV-Prolink backbone and transfected into an EA-arrestin parental human embryonic kidney (HEK-293) cell line from DiscoveRx Corporation. Clonal stable lines were subsequently selected under G418.
The values are normalized against DPDPE ([D-Pen2,5]Enkephalin, [D-Pen2,D-Pen5]Enkephalin), which is a known agonist of the receptor. Compound selectivity was also evaluated by testing compounds on the mu- and kappa-opioid receptors, the values from which were normalized against DAMGO ([D-Ala2, N-Me-Phe4, Gly5-ol]-Enkephalin acetate salt) and U69,593, respectively.

With `CCCN1CC[C@@H](COc2ccc3c(c2)C(=O)NC3)[C@H](c2ccc(OC)cc2)CC1` (racemic) [Compound C0004, (±)-6-{((trans)-5-(4-methoxyphenyl)-1-propylazepan-4-yl]methoxy}-2,3-dihydro-1H-isoindol-1-one] the “Active TST Dose” value ([1]; route sc) was at most 30 mg/kg.

For `Fc1ccc([C@@H]2CCNC[C@H]2COc2ccc3c(c2)OCO3)cc1` [Paroxetine], the “hDOR G Span” value [2] was under 100, the “hDOR B Span” value ([3]; efficacy, normalized against DPDPE) was under 100 and the EC50 ([3]; β-arrestin recruitment, HEK-293 cells, read-out: hDOR B pEC50 (converted)) was over 1 µM. The “selectivity for the delta-opioid receptor” value [4] was “non-selectivity”.

`CCCN1C2CCC1CC(c1ccc(OC)cc1)C(CCc1ccc3c(c1)C(=O)NC3)C2` (stereo not drawn) [Compound C0084, 6-{2-((cis)-4-(4-methoxyphenyl)-9-propyl-9-azabicyclo[4.2.1]nonan-3-yl]ethyl}-2,3-dihydro-1H-(trans)-isoindol-1-one] was tested, and the “Active TST Dose” value ([1]; route sc) was at most 30 mg/kg.

For `COc1ccc(C2CCN(CCc3ccccc3)C(C)CC2COc2ccc3c(c2)C(=O)NC3)cc1` (stereo not drawn) [Compound C0457, 6-{[(trans)-5-(4-methoxyphenyl)-2-methyl-1-(2-phenylethyl)azepan-4-yl]methoxy}-2,3-dihydro-1H-isoindol-1-one], the “Active TST Dose” value ([1]; route po) was at most 60 mg/kg.

For `CCCN1C2CCC1CC(c1ccc(OC)cc1)=C(COc1ccc3c(c1)C(=O)NC3)C2` (racemic) [Compound C0066, 6-{[4-(4-methoxyphenyl)-9-propyl-9-azabicyclo[4.2.1]non-3-en-3-yl]methoxy}-2,3-dihydro-1H-isoindol-1-one], the “Active TST Dose” value ([1]; route sc) was at most 10 mg/kg.
